Patent publication US7732178B2, “Laccase enzymes and their uses” (AB Enzymes Oy, priority 2004, dated 2010)
Where “and” joins values, the source holds several entries; their conditions need not be identical. Equal entries are not always repeated. Where two headings read alike, the source gives them in different places.

Experiments:
[1] = test system: wild type Chaetomium (CtL) laccase; assay type: biochemical, Chaetomium thermophilum; details: pH 5
TaLcc1 = assay type: biochemical, Thielavia arenaria
Description: (§1) The inhibition effect of different compounds on the activity of the laccases was determined as described in Example 2. except with Talcc4, with which the inhibition was analyzed using spectroscopic activity assay.

TaLcc2 = assay type: biochemical, Thielavia arenaria
Description: as §1

[2] = test system: wild type Thielavia (TaLcc) laccase; assay type: biochemical, Thielavia arenaria; details: pH 5
CtLcc1 = assay type: biochemical, Chaetomium thermophilum
Description: as §1

[3] = test system: Thielavia arenaria ALKO4197 laccase TaLcc4, recombinant, SEQ ID NO: 45; assay: Kinetic parameters of TaLcc4; assay type: biochemical; details: 40 mM MES buffer, pH 6, 25° C.
Description: (§2) On syringaldazin and DMP 40 mM MES buffer, pH 6 was used. All activity assays were carried out at 25° C. Kinetic parameters were estimated by a nonlinear regression curve fit. The values were compared to those of Melanocarpus albomyces MaL, laccase.

[4] = test system: Thielavia arenaria ALKO4197 laccase TaLcc3, recombinant, SEQ ID NO: 43; assay: Kinetic parameters of TaLcc3; assay type: biochemical; details: 40 mM MES buffer, pH 6, 25° C.
Description: as §2

[5] = target: T1, Thielavia arenaria ALKO4197 laccase TaLcc1, recombinant, SEQ ID NO: 39 (Canariomyces arenarius, UniProt F6N9E7); assay type: biochemical; details: 40 mM MES buffer, pH 6, 25° C.
T1 construct: plasmid pALK1342 (DSM 15484)
Description: as §2

[6] = target: T2, Melanocarpus albomyces laccase (MaL) (Melanocarpus albomyces, UniProt Q70KY3); assay: Kinetic parameters of MaL; assay type: biochemical; details: 40 mM MES buffer, pH 6, 25° C.
T2 sequence (Q70KY3 51-609): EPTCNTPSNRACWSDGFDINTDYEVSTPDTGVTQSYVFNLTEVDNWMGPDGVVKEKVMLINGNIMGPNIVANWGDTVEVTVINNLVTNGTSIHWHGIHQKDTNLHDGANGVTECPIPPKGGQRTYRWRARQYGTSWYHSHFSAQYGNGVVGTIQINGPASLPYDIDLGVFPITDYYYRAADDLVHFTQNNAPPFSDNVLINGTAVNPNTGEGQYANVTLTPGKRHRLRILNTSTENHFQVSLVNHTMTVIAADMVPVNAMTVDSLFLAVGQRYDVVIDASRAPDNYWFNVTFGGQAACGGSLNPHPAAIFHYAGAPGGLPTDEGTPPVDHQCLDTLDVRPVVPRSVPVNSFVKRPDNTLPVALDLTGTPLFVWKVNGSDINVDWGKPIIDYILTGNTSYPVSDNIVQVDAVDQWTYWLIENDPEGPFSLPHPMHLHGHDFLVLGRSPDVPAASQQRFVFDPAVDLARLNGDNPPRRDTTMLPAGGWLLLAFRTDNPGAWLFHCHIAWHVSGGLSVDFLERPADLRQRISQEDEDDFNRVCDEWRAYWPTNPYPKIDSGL
Description: as §2

[7] = test system: Chaetomium thermophilum ALKO4265 laccase, purified wild type (CtL; CtLcc1); assay type: biochemical; details: pH 5
TaLcc4 = assay type: biochemical, Thielavia arenaria; details: inhibitor 0.5 mM; spectrofotometric ABTS assay
[8] = target: T3, Thielavia arenaria ALKO4197 laccase TaLcc2, recombinant, SEQ ID NO: 41 (Canariomyces notabilis, UniProt A0AAN6TC87); assay type: biochemical
T3 construct: plasmid pALK1347 (DSM 15486)
T3 sequence (A0AAN6TC87 entry or part of it): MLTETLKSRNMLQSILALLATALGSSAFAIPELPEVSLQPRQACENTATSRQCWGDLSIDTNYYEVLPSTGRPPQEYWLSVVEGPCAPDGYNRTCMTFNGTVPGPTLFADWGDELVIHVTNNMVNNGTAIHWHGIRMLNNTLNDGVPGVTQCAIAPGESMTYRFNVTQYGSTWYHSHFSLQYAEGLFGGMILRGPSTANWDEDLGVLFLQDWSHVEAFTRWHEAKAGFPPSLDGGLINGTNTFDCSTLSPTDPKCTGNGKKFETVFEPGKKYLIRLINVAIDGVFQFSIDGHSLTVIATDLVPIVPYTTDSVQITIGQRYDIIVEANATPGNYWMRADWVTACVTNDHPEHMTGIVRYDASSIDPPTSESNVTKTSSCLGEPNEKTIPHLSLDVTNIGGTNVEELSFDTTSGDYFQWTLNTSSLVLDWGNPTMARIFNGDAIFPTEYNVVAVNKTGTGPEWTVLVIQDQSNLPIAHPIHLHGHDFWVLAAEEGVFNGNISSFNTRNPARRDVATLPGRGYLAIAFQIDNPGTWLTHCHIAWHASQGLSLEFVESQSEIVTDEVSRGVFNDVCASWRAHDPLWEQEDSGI
Description: as §1

[9] = test system: Thielavia arenaria ALKO4197 laccase TaLcc4, recombinant, SEQ ID NO: 45; assay type: biochemical
Description: as §1

[10] = target: T4, Chaetomium thermophilum ALKO4265 laccase CtLcc1, recombinant, SEQ ID NO: 47 (Thermochaetoides thermophila, UniProt G0S3A5); assay type: biochemical
T4 construct: plasmid pALK1304 (DSM 15075)
T4 sequence (G0S3A5 entry or part of it): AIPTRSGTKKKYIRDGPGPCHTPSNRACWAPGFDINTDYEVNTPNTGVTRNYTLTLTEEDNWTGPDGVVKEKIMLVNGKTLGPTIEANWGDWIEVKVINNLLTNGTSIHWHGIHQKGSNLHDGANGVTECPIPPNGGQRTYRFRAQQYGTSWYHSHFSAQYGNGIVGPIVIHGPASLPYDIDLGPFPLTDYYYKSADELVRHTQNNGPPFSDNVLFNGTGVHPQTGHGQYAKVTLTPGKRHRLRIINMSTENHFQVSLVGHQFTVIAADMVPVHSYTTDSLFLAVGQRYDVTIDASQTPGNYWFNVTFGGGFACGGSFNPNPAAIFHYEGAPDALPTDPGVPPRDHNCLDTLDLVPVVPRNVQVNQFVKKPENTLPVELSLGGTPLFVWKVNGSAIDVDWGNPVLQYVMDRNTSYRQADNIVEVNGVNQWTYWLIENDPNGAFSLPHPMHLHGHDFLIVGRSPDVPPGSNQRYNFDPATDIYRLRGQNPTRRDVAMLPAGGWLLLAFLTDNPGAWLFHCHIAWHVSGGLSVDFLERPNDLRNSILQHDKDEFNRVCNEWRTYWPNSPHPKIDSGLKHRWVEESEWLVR
Description: as §1

[11] = target: T1, Thielavia arenaria ALKO4197 laccase TaLcc1, recombinant, SEQ ID NO: 39; assay: biochemical
Description: as §1

[12] = target: Thielavia arenaria ALKO4197 laccase, purified wild type (TaLcc; TaLcc1) (Canariomyces arenarius, UniProt F6N9E7); assay: biochemical; details: pH 5
[13] = Redox potential, combined Pt-AgCl/KCl microelectrode; assay type: physicochemical; details: combined Pt-AgCl/KCl microelectrode at pH 5.0
Description: (§3) The purified recombinant Thielavia and Chaetomium laccases were characterized in terms of pH optimum, thermal stability, and pI as described in Example 2. The molecular weight was determined by MALDI-TOF mass spectrometry on a Ultraflex™ time-of-flight instrument (BrukerDaltonics, Germany) as previously described (Palonen et al., 2003). The redox-potentials of the T1 coppers of for CtLcc, and TaLcc2 laccases were determined by photometric copper titration in 0.1 M KH2PO4 (pH 6.0) as described by Xu et al. (1996) using the redox titrant couple K3Fe(CN)6/K4Fe(CN)6. The redox potential of TaLcc1 was determined with a combined Pt—AgCl/KCl microelectrode at pH 5.0 according to Sigoillot et al (2004). The characterization results are collected to Table 14.

[14] = Specific activity towards ABTS; assay type: biochemical; details: 25 mM succinate buffer pH 4.5, 25° C.
Description: The activity assay was carried out in accordance with the method developed by Niku-Paavola et al. (1988). The sample was diluted with 0.025 M succinate buffer, pH 4.5. […] The activity is expressed as nano katals.
(§4) Specific activities of the purified T. arenaria and C. thermophilum laccases were determined towards different laccase substrates.

[15] = Specific activity towards syringaldazine; assay type: biochemical; details: 25 mM MES buffer, pH 5.5
Description: as §4

[16] = Isoelectric focusing (pI); assay type: physicochemical; details: pH range 3-9
Description: Molecular weight of the T. arenaria and C. thermophilum laccases were determined on SDS-PAGE according to Laemmli (1970) The gels used in the SDS-PAGE analysis were ready-made 12% Tris HCl gels (BioRad). Protein bands were visualized by staining with Coomassie Brilliant Blue (R 350; Pharmacia) and compared with molecular weight markers (Prestained Protein Marker Broad Range #7708S; New England BioLabs, Beverly, Mass.). The molecular weight of the both laccases was approximately 80 kDa. The isoelectric point of the laccases was determined with isoelectric focusing within the pH range of 3-9 (Pharmalyte IEF, Pharmacia) on a LKB 2117 Multiphor II Electrophoresis System (LKB Pharmacia, Bromma, Sweden) according to the manufacturer's instructions.
as §3

[17] = Stain removal, tea soiling; set-up: key to Tea L* / Tea a* / Tea b*: CIE L*a*b* color coordinates from reflectance; details: 60 min, 40° C., pH 6; enzyme 20 nkat/g + mediator 2 mg/g (Mediator only: 0 nkat/g)
Description: (§5) Laccases CtLcc1, TaLcc2, TaLcc4 and Denilite II Base (Example 7) were tested for their ability to remove stains. The following artificially soiled test cloths were used: grass soiling (Art.164, EMPA Testmaterialen, Germany), tea soiling (Art. 167, EMPA Testmaterialen, Germany). The fabric was cut in 5.8×5.8 cm swatches. Laccase treatments were performed in LP-2 Launder Ometer as follows. About 5 g of soiled fabrics were loaded into 1.2 liter containers containing 150 ml Mc Ilvaine's citrate phosphate buffer pH 6 and the containers were temperated. Enzyme with or without the mediator (methyl syringate, DeniLite II Assist, Novozymes) was added as laccase activity units (Example 7). Enzyme was dosed 200 nkat/g and the mediator 10 mg/g on the weight of fabric, except at 40° C. dosages of 20 nkat/g and 2 mg/g were also used. The Launder Ometer was run at 40, 50 or 60° C. and pH 6 for 60 min. After that the swatches were carefully rinsed under running water and in shake flasks containing warm water and dried in the air.
(§6) The stain removal effect was evaluated by measuring the colour as reflectance values using L*a*b* color space coordinates (Example 7). The colour of the swatches was measured before and after the laccase treatment.

[18] = Specific activity towards di-methoxy-phenol (DMP); assay type: biochemical; details: 25 mM MES buffer, pH 5.5
Description: as §4

[19] = Stain removal, grass soiling; set-up: key to Grass L* / Grass a* / Grass b*: CIE L*a*b* color coordinates from reflectance; details: 60 min, 40° C., pH 6; enzyme 20 nkat/g + mediator 2 mg/g (Mediator only: 0 nkat/g)
Description: as §5, §6

[20] = Specific activity towards guaiacol; assay type: biochemical; details: 25 mM MES buffer, pH 5.5
Description: as §4

Molecule: [Cl-].[Na+] [NaCl]
- Inhibition (%) CtL [1]: 0% and 10%
- Inhibition (%) TaLcc1 (TaLcc1): 0%
- Inhibition (%) TaLcc2 (TaLcc2): 20% and 30%
- Inhibition (%) TaLcc [2]: 35% and 42%
- Inhibition (%) CtLcc1 (CtLcc1): 0% and 10%

Molecule: COc1cccc(OC)c1O [DMP, 2,6-dimethoxy phenol]
- Km [3]: 1900 µM
- kcat [3]: 26.5 s⁻¹
- Km [4]: 14 µM
- kcat [4]: 0.083 s⁻¹
- Km [5]: 17 µM
- kcat [5]: 67.17 s⁻¹
- kcat [6]: 69.33 s⁻¹

Molecule: [N-]=[N+]=[N-].[Na+] [NaN3]
- Inhibition (%) CtL [1]: 100%
- Inhibition (%) TaLcc1 (TaLcc1; inhibitor 0.5 mM): 95%
- Inhibition (%) TaLcc2 (TaLcc2; inhibitor 0.5 mM): 95%
- Inhibition (%) [7]: 100%
- Inhibition (%) TaLcc4 (TaLcc4): 95%
- Inhibition (%) CtLcc1 (CtLcc1; inhibitor 0.5 mM): 100%
- Inhibition (%) [8]: 95%
- Inhibition (%) [9]: 95%
- Inhibition (%) [10]: 100%

Molecule: O=C(O)CN(CCN(CC(=O)O)CC(=O)O)CC(=O)O [EDTA]
- inhibition at 10000 µM [11]: 5%
- Inhibition (%) [7]: 0%
- inhibition at 10000 µM [12]: 0%
- Inhibition (%) [9]: 2%

B1: TaLcc1: Thielavia arenaria ALKO 4197 laccase, SEQ ID NO: 39, produced in Trichoderma reesei (protein)
chain: MKSWAAAVALMVGILSPHAAAAPPANPVQRDMLQVLEARQSGPTCNTPSNRACWTNGFDINTDYEVSTPNTGRTVAYQLTLTEKENWIGPDGVLKNVVMLVNDKIIGPTIRANWGDNIEVTVINNLKTNGTSMHWHGLRQLGNVFNDGANGVTECPIPPKGGRKTYKFRATQYGTSWYHSHFSAQYGNGVVGTIQIDGPASLPYDIDLGVFPLMDYYYRSADELVHFTQSNGAPPSDNVLFNGTARHPETGAGQWYNVTLTPGKRHRLRIINTSTDNHFQVSLVGHNMTVIATDMVPVNAFTVSSLFLAVGQRYDVTIDANSPVGNYWFNVTFGDGLCGSSNNKFPAAIFRYQGAPATLPTDQGLPVPNHMCLDNLNLTPVVTRSAPVNNFVKRPSNTLGVTLDIGGTPLFVWKVNGSAINVDWGKPILDYVMSGNTSYPVSDNIVQVDAVDQWTYWLIENDPTNPIVSLPHPMHLHGHDFLVLGRSPDELPSAGVRHIFDPAKDLPRLKGNNPVRRDVTMLPAGGWLLLAFKTDNPGAWLFHCHIAWHVSGGLSVDFLERPNDLRTQLNSNAKRADRDDFNRVCREWNAYWPTNPFPKIDSGLRHRFVEESEWMVR
modifications: Thielavia arenaria ALKO4197; (1)..(617) Deduced amino acid sequence of Thielavia arenaria ALKO4197 TaLcc1
- E^0 [13]: 560 mV
- Specific activity on ABTS [14]: 910 nkat/mg
- Specific activity on syringaldazin [15]: 340 nkat/mg
- pI [16]: 5.5-6.9
- Tea L* [17]: 77.17
- Tea a* [17]: 4.65
- Tea b* [17]: 24.40
- Specific activity on DMP [18]: 285 nkat/mg
- Grass L* [19]: 80.16
- Grass a* [19]: −0.73
- Grass b* [19]: 16.20
- Specific activity on guaiacol [20]: 61 nkat/mg
